Data from patent publication US20150087722A1, “TREATMENT FOR BREAST TUMOR CELL METASTASIS” (China Medical University, priority 2012, published 2015).

Columns and labels:
Assay type in all cases: cell-based, human
[1] = tested on: E-cadherin and Vimentin in MDA-MB-231 cells; experiment: E-cadherin Luciferase activity / immunocytochemical analysis (ICC)
Source text: Thus, taking the MDA-MB-231 cell as an example, the expression results of E-cadherin and Vimentin in the cell were observed. FIG. 6 is a quantitative analysis diagram showing Luciferase activity of E-cadherin obtained from a primary antibody E-cadherin by an immunocytochemical analysis (ICC). In FIG. 6, a transformed cell strain only including an empty vector (pC3.1) is the negative control, and a cell strain including no compound II is the background control, the translational activity is defined as 100%. ICC includes embedding the tumor cells in paraffin and slicing the embedded cells into slides having a thickness of […] by a slicer, deparaffinizing, rehydrating and renaturating, picking the slide out and putting the slide into the primary antibody E-cadherin; reacting for 1.5 h and washing the slide for three times with PBS, reacting with the secondary antibody for 30 min and washing the slide for three times with PBS, staining the slide with 3′,3′-diaminobenzendine (DAB) at a ratio of 1:30, and the slide was mounted with Entellanz.

[2] = tested on: breast tumor cells MDA-MB-231; experiment: transwell invasion assay; details: 0.5, 1 and 2 μM, 20 h, with increasing concentration
Description: (§1) In the transwell invasion assay, the Matrigel which was a component of ECM was used to imitate the environment between cells. When the cells in a BD Matrigel™ Invasion Chamber were stimulated by growth factors in the Matrigel matrix, the cells secreted some matrix proteolytic enzymes to degrade the Matrigel, so as to facilitate invasion of cells. If the cells had strong invasion capability, the cells can be observed on the filter membrane after staining. In FIG. 15, 800 μl 10% FBS-DMEM was added into the transwell as a chemoattractant, and then 500 μl cells (1×10^5) were planted in the transwell. DMEM culture medium included no FBS and the compound II of 0.5, 1 and 2 μM. The breast tumor cells MDA-MB-231 were then cultured at an atmosphere of 5% CO2 in an incubator at 37° C. for 20 h. Subsequently the cells were stained with Giemsa for 15 min, and observed by taking photographs at a 200× field of an optical microscope. In the test each time each group was represented by a medium value of three repeat transwells. In FIGS. 16A, 16B and 17, the breast tumor cells MDA-MB-231 were replaced by the breast tumor cells MDA-MB-468, the breast tumor cells MDA-MB-435 and the human normal breast cells MCF-10A, respectively. Furthermore, in FIGS. 16A and 16B, the compound II was replaced by the compound I of 0.5, 1 and 2 μM and the compound I of 2.5, 5 and 7.5 μM. In FIG. 17, the compound II was replaced by compound I of 2 μM, TNF-α/TGF-β of 10 ng/ml, and compound I of 2 μM and TNF-α/TGF-β of 10 ng/ml. In the quantitative method of cell migration test, steps included randomly choosing 9 fields at the lower surface of the transwell membrane, counting the total cell number in each field; regarding the medium value of cell number in the 9 fields as an index of chemotaxis migration of breast tumor cells in each transwell, and each group of each test was represented by the medium value of 3 repeat transwells.

[3] = tested on: breast tumor cells MDA-MB-453; experiment: MTT cell viability assay; details: for cell viability: FIG. 24
Description: The breast tumor cells (MDA-MB-231, MDA-MB-435, MDA-MB-453, MDA-MB-468 and MCF-7) were commercially obtained from the bioresource collection and research center (BCRC), and were cultured in a 10% FBS-DMEM culture medium (i.e., a DMEM culture medium including 10% fetal bovine serum (FBS)). The human breast cell MCF-10A was cultured in a 5% FBS-DMEM culture medium (including F12, insulin, hydrocortisol and epidermal growth factor). An environment of 5% CO2 was kept in the incubator at a constant temperature of 37° C. When a certain number of cells were generated in culture, the culture medium was removed after being centrifuged for 10 min at a rate of 900 rpm. The culture medium was replaced in 24 h before the experiment, and the number of cells was counted by a hemocytometer.
The cell viability was determined by a method of […] (MTT assay). The test method for assaying cell viability refers to steps provided by Parada-Turska et al.
The breast tumor cells MDA-MB-231 were inoculated in a 24-well plate (2.5×10^5 cells/well), and the next day after cells were adhered to the wall of the plate, the cells were washed with PBS. 1% FBS-DMEM culture medium was then added so as to synchronize cells. The next day compound II having different concentrations were added into the wells, and the cells were subsequently cultured in an atmosphere of 5% CO2 at 37° C. for 24 h. The cells were washed with PBS once, and 400 μl MTT agent was added in each well so as to react for 4 h. Then 400 μl 10% SDS was added in each well so as to react for 12 h. 200 μl supernatant was taken from the well and then added into a 96-well microplate, so as to measure the absorbance at 570 nm.
In the MTT assay, the MDA-MB-453 cells were cultured in a culture medium including 5% fetal bovine serum-DMEM F12/insulin/hydrocortisol/epidermal growth factor. Then the cells were cultured at an atmosphere of 5% CO2 in an incubator at a constant temperature of 37° C. When a certain number of cells were generated in culture, the culture medium was removed after being centrifuged at 900 rmp for 10 min. The culture medium was replaced in 24 h before the experiment, and the number of cells was counted by a hemocytometer.

[4] = tested on: breast tumor cells MDA-MB-468; experiment: transwell invasion assay; details: 0.5, 1 and 2 μM, with increasing concentration
Description: as §1

[5] = tested on: breast tumor cells MDA-MB-435; experiment: transwell invasion assay; details: 2.5, 5 and 7.5 μM, with increasing concentration
Description: as §1

Row | IC50 ([3]; Homo sapiens, viability, MDA-MB-453 cell strain, Table 1) | Structure (SMILES) | expression of vimentin ([1]; MDA-MB-231) | expression amount of E-cadherin in the cytoplasm ([1]; MDA-MB-231, with dose increasing, FIG. 6) | migration of breast tumor cells MDA-MB-231 (transwell) [2] | cell viability ([3]; 40 μM with 2.5 mM antioxidant NAC) | cell viability ([3]; 40 μM, compound only) | viability of breast tumor cells ([3]; MDA-MB-453, with increasing concentration, FIG. 21) | migration of breast tumor cells MDA-MB-468 (transwell) [4] | migration of breast tumor cells MDA-MB-435 (transwell) [5]
1 | 36.7 µM | COC1=C(OC)C(=O)C(C)=C(C)C1=O [compound II] | inhibit expression of vimentin | increased | significantly reduced | recovered | half of that in the control group | inhibited significantly | – | –
2 | – | COC1=C(OC)C(=O)C(C)=CC1=O [compound I] | – | – | – | – | – | – | significantly reduced | also significantly reduced
